Results from ChEMBL document CHEMBL2216752, “Carnitine palmitoyltransferase (CPT) modulators: a medicinal chemistry perspective on 35 years of research” (J Med Chem, 2011).

Assays:
Homo sapiens [1] = species: Homo sapiens; assay: Increase in left ventricular ejection fraction in CHF patient at 80 mg/day for 3 months; assay type: functional, Heart left ventricle
Homo sapiens [2] = species: Homo sapiens; assay: Increase in stroke volume in CHF patient at 80 mg/day for 3 months; assay type: functional
Homo sapiens [3] = species: Homo sapiens; assay: Increase in maximum cardiac output in CHF patient at 80 mg/day for 3 months measured during exercise; assay type: functional
Homo sapiens [4] = assay: Increase in glucose MCR in NIDD patient at 50 mg, po administered as single dose; assay type: functional
Homo sapiens [5] = assay: Reduction in whole body fat oxidation in human at 600 mg, po for 5 days; assay type: functional; design: scale not given: the % may be the effect or the level left
Homo sapiens [6] = assay: Reduction in fat oxidation in NIDD patient at 100 mg/day, po for 3 days administered as single dose; assay type: functional; design: scale not given: the % may be the effect or the level left
Homo sapiens [7] = assay: Reduction in glucose appearance rate in NIDD patient at 100 mg/day, po for 3 days administered as single dose; assay type: functional; design: scale not given: the % may be the effect or the level left
Homo sapiens [8] = assay: Increase in metabolic clearance of glucose in NIDD patient at 50 mg, po administered as single dose; assay type: functional
Homo sapiens [9] = assay: Increase in carbohydrate oxidation in NIDD patient at 100 mg/day, po for 3 days administered as single dose; assay type: functional
Homo sapiens [10] = assay: Reduction in plasma LD/HDL ratio in NIDD patient at 12.5 to 50 mg/day, po for 14 days; assay type: functional; design: scale not given: the % may be the effect or the level left
Homo sapiens [11] = assay: Reduction in plasma TG level in NIDD patient at 12.5 to 50 mg/day, po for 14 days; assay type: functional; design: scale not given: the % may be the effect or the level left
Homo sapiens [12] = assay: Reduction in beta-hydroxy butyrate level in NIDD patient at 12.5 to 50 mg/day, po for 14 days; assay type: functional; design: scale not given: the % may be the effect or the level left
Homo sapiens [13] = assay: Reduction in FBG level in NIDD patient at 12.5 to 50 mg/day, po for 14 days; assay type: functional; design: scale not given: the % may be the effect or the level left
Homo sapiens [14] = assay: Reduction in plasma TG level in NIDD patient at 50 to 200 mg/day, po bid for 3 days before meals; assay type: functional; design: scale not given: the % may be the effect or the level left
Homo sapiens [15] = assay: Increase in plasma FFAs level in NIDD patient at 50 to 200 mg/day, po bid for 3 days before meals; assay type: functional
Homo sapiens [16] = assay: Reduction in plasma cholesterol level in NIDD patient at 50 to 200 mg/day, po bid for 3 days before meals; assay type: functional; design: scale not given: the % may be the effect or the level left
Homo sapiens [17] = assay: Reduction in BHB level in NIDD patient at 50 to 200 mg/day, po bid for 3 days before meals; assay type: functional; design: scale not given: the % may be the effect or the level left
Homo sapiens [18] = assay: Reduction in basal hepatic glucose production in NIDD patient at 50 to 200 mg/day, po bid for 3 days before meals; assay type: functional; design: scale not given: the % may be the effect or the level left
Homo sapiens [19] = assay: Reduction in fasting plasma glucose in NIDD patient at 50 to 200 mg/day, po bid for 3 days before meals; assay type: functional; design: scale not given: the % may be the effect or the level left
Homo sapiens [20] = assay: Reduction in postprandial glucose in NIDD patient at 125 mg/day, po for 4 days (reference value: 10.5 mM); assay type: functional
Rattus norvegicus [21] = assay: Reduction in fasting serum FFAs level in high fat diet fed STZ-treated rat at 12.5 mg/kg/day, po for up to 4 weeks measured 3 days to 1 week post dose; assay type: functional; design: scale not given: the % may be the effect or the level left
Rattus norvegicus [22] = assay: Reduction in plasma TG in high fat diet fed STZ-treated rat at 12.5 mg/kg/day, po for up to 4 weeks measured 3 days to 1 week post dose; assay type: functional; design: scale not given: the % may be the effect or the level left
Rattus norvegicus [23] = assay: Reduction in hepatic glucose production in STZ-treated rat at 12.5 to 25 mg/kg, po; assay type: functional; design: scale not given: the % may be the effect or the level left; conditions: dose mg/kg 12.5-25
Rattus norvegicus [24] = assay: Reduction in fasting plasma glucose level in STZ-treated rat at 12.5 to 25 mg/kg, po; assay type: functional; design: scale not given: the % may be the effect or the level left; conditions: dose mg/kg 12.5-25
Rattus norvegicus [25] = assay: Inhibition of CPT1 activity in blood KB level in STZ-treated fasted rat at 0.2 to 18 mg/kg, po; assay type: functional; conditions: dose mg/kg 0.2-18
Rattus norvegicus [26] = assay: Reduction in blood KB level in STZ-treated fasted rat at 0.2 to 18 mg/kg, po; assay type: functional; design: scale not given: the % may be the effect or the level left; conditions: dose mg/kg 0.2-18
Rattus norvegicus [27] = assay: Reduction in blood glucose in STZ-treated fasted rat at 0.2 to 18 mg/kg, po measured 4 hrs post dose; assay type: functional; design: scale not given: the % may be the effect or the level left; conditions: dose mg/kg 0.2-18
Mus musculus [28] = assay: Reduction in glucose excretion in db/db mouse at 10 to 20 mg/kg/day, po dosed life long through food-admix; assay type: functional; design: scale not given: the % may be the effect or the level left
Mus musculus [29] = assay: Reduction in urine volume in db/db mouse at 10 to 20 mg/kg/day, po dosed life long through food-admix; assay type: functional; design: scale not given: the % may be the effect or the level left
Mus musculus [30] = assay: Reduction in daily water intake in db/db mouse at 10 to 20 mg/kg/day, po dosed life long through food-admix; assay type: functional; design: scale not given: the % may be the effect or the level left
Mus musculus [31] = assay: Reduction in fasting glucose in db/db mouse at 10 to 20 mg/kg/day, po dosed life long through food-admix; assay type: functional; design: scale not given: the % may be the effect or the level left
Mus musculus [32] = assay: Reduction in FBG level in db/db mouse at 50 mg/kg, po; assay type: functional; design: scale not given: the % may be the effect or the level left
Mus musculus [33] = assay: Reduction in FBG level in db/db mouse at 10 mg/kg, po; assay type: functional; design: scale not given: the % may be the effect or the level left
MOLM-13 = assay: Cytotoxicity against human MOLM13 cells assessed as reduction in cell viability; assay type: functional, cell-based
[34] = Cytotoxicity against human OCI-AML3 cells assessed as reduction in cell viability; assay type: functional, cell-based; conditions: OCI-AML-3
Hepatocyte = assay: Inhibition of fatty acid synthesis in rat hepatocytes; assay type: functional, cell-based

Work on `CCOC(=O)C1(CCCCCCOc2ccc(Cl)cc2)CO1` (racemic) [rac-ETOMOXIR] yielded an Activity (Homo sapiens [1]) of 25%, an Activity (Homo sapiens [2]) of 30% and an Activity (Homo sapiens [3]) of 38%. It also gave an Activity (Homo sapiens [4]) of 33%, an Activity (Homo sapiens [5]) of 13.7% and an Activity (Homo sapiens [6]) of 18%. The Activity (Homo sapiens [7]) was 8%, the Activity (Homo sapiens [8]) was 30% and the Activity (Homo sapiens [9]) was 58%. For the same compound, the Activity (Homo sapiens [10]) was 35%, the Activity (Homo sapiens [11]) was 30% and the Activity (Homo sapiens [12]) was 50%. For the same compound, the Activity (Homo sapiens [13]) was “<=45%”, the Activity (Homo sapiens [14]) was 54% and the Activity (Homo sapiens [15]) was 52%. For the same compound, the Activity (Homo sapiens [16]) was 24%, the Activity (Homo sapiens [17]) was 44% and the Activity (Homo sapiens [18]) was 18%. It also gave an Activity (Homo sapiens [19]) of 18%, an Activity (Homo sapiens [20]) of 8.3 mM and an Activity (Rattus norvegicus [21]) of 56%. For the same compound, the Activity (Rattus norvegicus [22]) was 67%, the Activity (Rattus norvegicus [23]) was 32% and the Activity (Rattus norvegicus [24]) was 32%. For the same compound, the “inhibition (INH)” value (Rattus norvegicus [25]) was “<=99%”, the Activity (Rattus norvegicus [26]) was 87% and the Activity (Rattus norvegicus [27]) was 40%. The Activity (Mus musculus [28]) was 70%, the Activity (Mus musculus [29]) was 70% and the Activity (Mus musculus [30]) was 50%. For the same compound, the Activity (Mus musculus [31]) was 50%, the Activity (Mus musculus [32]) was 55% and the Activity (Mus musculus [33]) was 43%. For the same compound, the IC50 (MOLM-13) was 51 µM, the IC50 [34] was 51 µM and the IC50 (Hepatocyte) was 2 µM.
